These results are taken from US20230055237A1, “COMPOUNDS AND METHODS FOR THE TREATMENT OF CYSTIC FIBROSIS” (Flatley Discovery Lab, LLC, priority 2019, published 2023).

The target in the experiment is T1, CFTR (Homo sapiens, UniProt P13569, DEL508-508).
T1 construct: Primary CF airway epithelial cells were obtained from the UNC Cystic Fibrosis Tissue Procurement and Cell Culture Core; host or cells: primary CF airway epithelial cells, differentiated at the air-liquid interface
Kind of experiment: Equivalent current assay in primary CF airway epithelial cells (NAUC, combination with 1st site corrector FDL169 or VX-809). In kind it is cell-based. Particulars: 37° C., 24 h.

Setting [1] is: test compound 1 μM in combination with 1st site corrector FDL169 (3 μM).
The mark [2] stands for this setting: test compound 3 μM in combination with 1st site corrector FDL169 (3 μM).
[3] abbreviates: test compound 10 μM in combination with 1st site corrector FDL169 (3 μM).
Setting [4] is: test compound 3 μM in combination with 1st site corrector VX-809 (3 μM).
[5] abbreviates: test compound 10 μM in combination with 1st site corrector VX-809 (3 μM).
Setting [6] is: test compound 1 μM in combination with 1st site corrector VX-809 (3 μM).

T1 sequence (P13569 with tags, fused parts or gaps DEL508-508): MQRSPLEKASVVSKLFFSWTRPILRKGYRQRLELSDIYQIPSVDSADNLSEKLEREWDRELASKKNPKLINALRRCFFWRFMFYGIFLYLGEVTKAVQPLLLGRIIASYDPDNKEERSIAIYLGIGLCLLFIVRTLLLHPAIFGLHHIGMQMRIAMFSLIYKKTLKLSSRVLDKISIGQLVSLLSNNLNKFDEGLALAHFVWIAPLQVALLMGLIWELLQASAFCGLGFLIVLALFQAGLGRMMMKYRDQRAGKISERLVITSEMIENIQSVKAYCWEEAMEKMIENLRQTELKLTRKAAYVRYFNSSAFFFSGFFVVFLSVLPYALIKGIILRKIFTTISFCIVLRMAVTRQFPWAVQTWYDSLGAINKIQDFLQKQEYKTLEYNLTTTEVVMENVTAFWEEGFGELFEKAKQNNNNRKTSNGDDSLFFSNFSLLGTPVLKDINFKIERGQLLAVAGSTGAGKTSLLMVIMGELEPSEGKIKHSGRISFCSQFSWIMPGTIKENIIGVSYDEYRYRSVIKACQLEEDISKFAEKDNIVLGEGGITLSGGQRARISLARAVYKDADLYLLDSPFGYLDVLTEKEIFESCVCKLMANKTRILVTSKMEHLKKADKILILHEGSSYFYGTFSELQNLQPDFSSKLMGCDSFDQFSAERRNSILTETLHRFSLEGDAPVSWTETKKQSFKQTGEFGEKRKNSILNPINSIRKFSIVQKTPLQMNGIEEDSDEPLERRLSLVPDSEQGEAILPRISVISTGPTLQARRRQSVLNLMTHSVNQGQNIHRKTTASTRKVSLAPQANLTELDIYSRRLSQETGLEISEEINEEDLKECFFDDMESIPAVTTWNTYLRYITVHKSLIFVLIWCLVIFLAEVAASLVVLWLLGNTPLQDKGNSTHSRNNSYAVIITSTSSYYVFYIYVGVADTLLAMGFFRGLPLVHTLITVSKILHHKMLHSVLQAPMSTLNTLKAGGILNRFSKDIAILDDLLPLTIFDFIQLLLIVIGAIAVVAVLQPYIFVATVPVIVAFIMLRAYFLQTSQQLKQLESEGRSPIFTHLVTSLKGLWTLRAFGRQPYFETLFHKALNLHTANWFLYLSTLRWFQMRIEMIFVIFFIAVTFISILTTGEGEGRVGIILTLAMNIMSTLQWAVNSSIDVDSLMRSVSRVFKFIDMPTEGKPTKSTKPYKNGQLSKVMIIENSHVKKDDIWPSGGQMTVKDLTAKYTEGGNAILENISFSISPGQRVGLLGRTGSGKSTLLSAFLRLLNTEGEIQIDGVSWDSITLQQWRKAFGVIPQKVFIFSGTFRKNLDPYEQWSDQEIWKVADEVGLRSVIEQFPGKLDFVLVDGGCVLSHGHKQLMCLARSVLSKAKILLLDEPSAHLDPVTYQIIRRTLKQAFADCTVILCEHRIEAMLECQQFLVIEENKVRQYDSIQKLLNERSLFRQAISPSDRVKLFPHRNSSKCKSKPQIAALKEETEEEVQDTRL

As for `CCCN(C(=O)[C@H]1[C@H]2CC(F)(F)CN2[C@]2(C(=O)Nc3c(Cl)cc(Cl)cc32)[C@H]1C(=O)O)c1cc(Cl)cc(Cl)c1` [Example 172], the “Nauc @ 1 μM” value under setting [1] is “+++ (NAUC “+++” refers to an observed NAUC>170% of positive control)”. Moreover, the “Nauc @ 3 μM” value under setting [2] is recorded as “+++ (NAUC “+++” refers to an observed NAUC>170% of positive control)”. Moreover, the “Nauc @ 10 μM” value under setting [3] is reported as “+++ (NAUC “+++” refers to an observed NAUC>170% of positive control)”.
Turning to `O=C(Nc1cc(Cl)cc(Cl)c1)C1C2CC3(CC3)CN2C2(C(=O)Nc3c(Cl)cc(Cl)cc32)C1C(=O)O` (centres unmarked) [Example 16], the “Nauc @ 3 μM” value under setting [4] was “+++ (NAUC “+++” refers to an observed NAUC>170% of positive control)”. Moreover, the “Nauc @ 10 μM” value under setting [5] is listed as “+++ (NAUC “+++” refers to an observed NAUC>170% of positive control)”.
Consider `O=C(O)[C@H]1[C@@H](C(=O)N(CC23CC4CC(CC(C4)C2)C3)c2cc(Cl)cc(Cl)c2)[C@H]2CC(F)(F)CN2[C@]12C(=O)Nc1c(Cl)cc(Cl)cc12` [Example 194], for which, under setting [1], the “Nauc @ 1 μM” value is “++ (NAUC “++” refers to an observed NAUC 170-140% of positive control)”. Under setting [2], the “Nauc @ 3 μM” value is “+++ (NAUC “+++” refers to an observed NAUC>170% of positive control)”.
With `CC(C)(C)c1ccc(CCNC(=O)C2C3CC(F)(F)CN3C3(C(=O)Nc4c(Cl)cc(Cl)cc43)C2C(=O)O)cc1` (centres unmarked) [Example 46], the “Nauc @ 3 μM” value under setting [4] was “+++ (NAUC “+++” refers to an observed NAUC>170% of positive control)”. For the same compound, under setting [5], the “Nauc @ 10 μM” value is listed as “+++ (NAUC “+++” refers to an observed NAUC>170% of positive control)”.
As to `CN(C(=O)[C@H]1[C@@H](C(F)(F)F)NC2(C(=O)N(C)c3c(Cl)cc(Cl)cc32)[C@H]1C(=O)O)c1cc(Cl)cc(Cl)c1` (mixture of isomers) [Example 271, rac-(3′S,4′R,5′S)-5,7-dichloro-4′-((3,5-dichlorophenyl)(methyl)carbamoyl)-1-methyl-2-oxo-5′-(trifluoromethyl)spiro[indoline-3,2′-pyrrolidine]-3′-carboxylic acid], the “Nauc @ 1 μM” value under setting [6] is “+ (NAUC “+” refers to an observed NAUC <140% of positive control)”. Besides, the “Nauc @ 3 μM” value under setting [4] is listed as “+++ (NAUC “+++” refers to an observed NAUC>170% of positive control)”. For the same compound, under setting [5], the “Nauc @ 10 μM” value is recorded as “+ (NAUC “+” refers to an observed NAUC <140% of positive control)”.
Take `O=C(Nc1cc(Cl)cc(Cl)c1F)C1C2CC(F)(F)CN2C2(C(=O)Nc3c(Cl)cc(Cl)cc32)C1C(=O)O` (centres unmarked) [Example 42]: the “Nauc @ 3 μM” value under setting [4] was “+++ (NAUC “+++” refers to an observed NAUC>170% of positive control)”. Moreover, the “Nauc @ 10 μM” value under setting [5] is “+++ (NAUC “+++” refers to an observed NAUC>170% of positive control)”.
For the compound `O=C(Nc1cc(Cl)cc(Cl)c1)C1C(C(F)(F)c2cccnc2)NC2(C(=O)Nc3c(Cl)cc(Cl)cc32)C1C(=O)O` (centres unmarked) [Example 74.a], the “Nauc @ 10 μM” value under setting [5] was “+ (NAUC “+” refers to an observed NAUC <140% of positive control)”.
For `Cn1ccnc1NC(=O)[C@H]1[C@@H](C(=O)Nc2cc(Cl)cc(Cl)c2)[C@H]2CCCN2[C@]12C(=O)Nc1c(Cl)cc(Cl)cc12` (single isomer, unassigned) [Example 238, (1′R,2′S,7a′R)-5,7-dichloro-N1′-(3,5-dichlorophenyl)-N2′-(1-methyl-1H-imidazol-2-yl)-2-oxo-1′,2′,5′,6′,7′,7a′-hexahydrospiro[indoline-3,3′-pyrrolizine]-1′,2′-dicarboxamide], the “Nauc @ 1 μM” value under setting [6] is “+ (NAUC “+” refers to an observed NAUC <140% of positive control)”. For the same compound, the “Nauc @ 3 μM” value under setting [4] is listed as “+ (NAUC “+” refers to an observed NAUC <140% of positive control)”.
With `O=C(Nc1cc(Cl)cc(Cl)c1)C1CN(CC(F)(F)F)C2(C(=O)Nc3c(Cl)cc(Cl)cc32)C1C(=O)O` (centres unmarked) [Example 79a], the “Nauc @ 1 μM” value under setting [6] was “+ (NAUC “+” refers to an observed NAUC <140% of positive control)”. In addition, the “Nauc @ 3 μM” value under setting [4] was “+ (NAUC “+” refers to an observed NAUC <140% of positive control)”. The “Nauc @ 10 μM” value under setting [5] is “+ (NAUC “+” refers to an observed NAUC <140% of positive control)”.
Take `O=C(Nc1cnc(-c2ccccc2)cn1)[C@H]1[C@H]2CC(F)(F)CN2[C@]2(C(=O)Nc3c(Cl)cc(Cl)cc32)[C@H]1C(=O)O` [Example 134]: under setting [6], the “Nauc @ 1 μM” value is given as “+ (NAUC “+” refers to an observed NAUC <140% of positive control)”. Further, the “Nauc @ 3 μM” value under setting [4] is reported as “+ (NAUC “+” refers to an observed NAUC <140% of positive control)”.
As for `CN(C(=O)[C@H]1[C@H]2CC(F)(F)CN2C2(C(=O)Nc3c(Cl)cc(Cl)cc32)[C@H]1C(=O)NS(=O)(=O)c1ccccc1)c1cc(Cl)cc(Cl)c1` (mixture of isomers) [Example 230, rel-(1′R,2′S,3R,7a′R)-5,7-dichloro-N1′-(3,5-dichlorophenyl)-6′,6′-difluoro-N1′-methyl-2-oxo-N2′-(phenylsulfonyl)-1′,2′,5′,6′,7′,7a′-hexahydrospiro[indoline-3,3′-pyrrolizine]-1′,2′-dicarboxamide], under setting [5], the “Nauc @ 10 μM” value is “+ (NAUC “+” refers to an observed NAUC <140% of positive control)”.
On to `O=C(Nc1cc(Cl)cc(Cl)c1)C1C(C(F)(F)c2ccccn2)NC2(C(=O)Nc3c(Cl)cc(Cl)cc32)C1C(=O)O` (centres unmarked) [Example 72.a], for which, under setting [5], the “Nauc @ 10 μM” value is recorded as “+ (NAUC “+” refers to an observed NAUC <140% of positive control)”.
On to `O=C(Nc1cc(Cl)cc(Cl)c1)C1C(C(F)(F)c2ccc(C(F)(F)F)cc2)NC2(C(=O)Nc3c(Cl)cc(Cl)cc32)C1C(=O)O` (centres unmarked) [Example 73.c], for which the “Nauc @ 1 μM” value under setting [6] is “+ (NAUC “+” refers to an observed NAUC <140% of positive control)”. In addition, under setting [4], the “Nauc @ 3 μM” value is “+ (NAUC “+” refers to an observed NAUC <140% of positive control)”. The “Nauc @ 10 μM” value under setting [5] is recorded as “+++ (NAUC “+++” refers to an observed NAUC>170% of positive control)”.
With `CN(C(=O)[C@H]1[C@H]2CC(F)(F)CN2C2(C(=O)Nc3ccccc32)[C@H]1C(=O)O)c1cc(Cl)cc(Cl)c1` (some centres unmarked) [Example 102], under setting [5], the “Nauc @ 10 μM” value is “+ (NAUC “+” refers to an observed NAUC <140% of positive control)”.
In the case of `O=C1C2C(C(F)(F)F)NC3(C(=O)Nc4c(Cl)cc(Cl)cc43)C2C(=O)N1c1cc(Cl)cc(Cl)c1` (single isomer, unassigned) [Example 81, 5,7-dichloro-4′4(3,5-dichlorophenyl)carbamoyl)-1-methyl-2-oxo-5′-(trifluoromethyl)spiro[indoline-3,2′-pyrrolidinel-3′-carboxylic acid], under setting [6], the “Nauc @ 1 μM” value is given as “+ (NAUC “+” refers to an observed NAUC <140% of positive control)”. Also, under setting [4], the “Nauc @ 3 μM” value is recorded as “++ (NAUC “++” refers to an observed NAUC 170-140% of positive control)”. The “Nauc @ 10 μM” value under setting [5] is reported as “+ (NAUC “+” refers to an observed NAUC <140% of positive control)”.
Regarding `O=C(Nc1cc(Cl)cc(Cl)c1)C1CN(C(=O)CCc2ccccc2)C2(C(=O)Nc3c(Cl)cc(Cl)cc32)C1C(=O)O` (centres unmarked) [Example 24], the “Nauc @ 3 μM” value under setting [4] was “+++ (NAUC “+++” refers to an observed NAUC>170% of positive control)”. For the same compound, the “Nauc @ 10 μM” value under setting [5] was “+ (NAUC “+” refers to an observed NAUC <140% of positive control)”.
For `COc1c(Cl)cc(NC(=O)C2C3CC(F)(F)CN3C3(C(=O)Nc4c(Cl)cc(Cl)cc43)C2C(=O)O)cc1Cl` (centres unmarked) [Example 9], in that order: “+++ (NAUC “+++” refers to an observed NAUC>170% of positive control)” and “+++ (NAUC “+++” refers to an observed NAUC>170% of positive control)”.
In the case of `COc1cc(C(F)(F)F)cc(NC(=O)C2C3C[C@@](O)(C(F)(F)F)CN3C3(C(=O)Nc4c(Cl)cc(Cl)cc43)C2C(=O)O)n1` (some centres unmarked) [Example 22], the “Nauc @ 3 μM” value under setting [4] is given as “++ (NAUC “++” refers to an observed NAUC 170-140% of positive control)”. In addition, the “Nauc @ 10 μM” value under setting [5] is given as “+++ (NAUC “+++” refers to an observed NAUC>170% of positive control)”.
With `CN(O)C(=O)[C@H]1[C@@H](C(=O)N(C)c2cc(Cl)cc(Cl)c2)[C@H]2CC(F)(F)CN2[C@]12C(=O)Nc1c(Cl)cc(Cl)cc12` [Example 260a, (1′R,2′S,3R,7a′R)-5,7-dichloro-N1′-(3,5-dichlorophenyl)-6′,6′-difluoro-N2′-hydroxy-N1′,N2′-dimethyl-2-oxo-1′,2′,5′,6′,7′,7a′-hexahydrospiro[indoline-3,3′-pyrrolizine]-1′,2′-dicarboxamide], the “Nauc @ 1 μM” value under setting [6] is “+ (NAUC “+” refers to an observed NAUC <140% of positive control)”. Besides, under setting [4], the “Nauc @ 3 μM” value is listed as “+ (NAUC “+” refers to an observed NAUC <140% of positive control)”.
`O=C(O)[C@H]1[C@@H](C(=O)N(c2cc(Cl)cc(Cl)c2)C2CCC2)[C@H]2CC(F)(F)CN2[C@]12C(=O)Nc1c(Cl)cc(Cl)cc12` [Example 152]: the “Nauc @ 1 μM” value under setting [1] is recorded as “+++ (NAUC “+++” refers to an observed NAUC>170% of positive control)”. Also, under setting [2], the “Nauc @ 3 μM” value is on record as “+++ (NAUC “+++” refers to an observed NAUC>170% of positive control)”. The “Nauc @ 10 μM” value under setting [3] is given as “++ (NAUC “++” refers to an observed NAUC 170-140% of positive control)”.
`O=C(Nc1cc(Cl)c(OC(F)F)c(Cl)c1)C1C2CCCN2C2(C(=O)Nc3c(Cl)cc(Cl)cc32)C1C(=O)O` (centres unmarked) [Example 19]: the “Nauc @ 3 μM” value under setting [4] is given as “++ (NAUC “++” refers to an observed NAUC 170-140% of positive control)”. Besides, the “Nauc @ 10 μM” value under setting [5] is listed as “+++ (NAUC “+++” refers to an observed NAUC>170% of positive control)”.
As to `O=C(Nc1cccc(O)c1)C1C2CC(F)(F)CN2C2(C(=O)Nc3c(Cl)cc(Cl)cc32)C1C(=O)O` (centres unmarked) [Example 76.a], the “Nauc @ 10 μM” value under setting [5] is recorded as “+ (NAUC “+” refers to an observed NAUC <140% of positive control)”.
For `O=C(Nc1cc(Cl)cc(Cl)c1)C1C2N(CCC2(F)F)C2(C(=O)Nc3c(Cl)cc(Cl)cc32)C1C(=O)O` (centres unmarked) [Example 60], the “Nauc @ 3 μM” value under setting [4] is listed as “+++ (NAUC “+++” refers to an observed NAUC>170% of positive control)”. The “Nauc @ 10 μM” value under setting [5] is listed as “+++ (NAUC “+++” refers to an observed NAUC>170% of positive control)”.
